Values of other authors, collected in publication PMC13291975, “Brighter NIR Bioluminescence System for Mammalian Cell Bioimaging Based on Engineered Railroadworm Luciferase and 6′-Aminoluciferin Analogues” (Chemical & Biomedical Imaging, 2026).

Target: T1, Phrixotrix hirtus railroadworm red-emitting luciferase (PxRE; RE-WT) (Phrixothrix hirtus, UniProt Q9U4U7)
T1 construct: N-terminal His-tag, pCold vector, expressed in E. coli BL21-DE3, Ni-agarose purified
Experiment: bioluminescence peak intensity, Lineweaver-Burk
Assay type: biochemical
Details: read-out: K M LH2; ATP/MgSO4, 0.1 M Tris-HCl pH 8.0; kcat in relative luminometer counts; error not given, value possibly from the authors' earlier work; the text says 'Previously, we showed'
Excerpt: bioluminescence peak intensity, Lineweaver-Burk on Phrixotrix hirtus railroadworm red-emitting luciferase (PxRE; RE-WT)

T1 sequence (Q9U4U7 entry or part of it): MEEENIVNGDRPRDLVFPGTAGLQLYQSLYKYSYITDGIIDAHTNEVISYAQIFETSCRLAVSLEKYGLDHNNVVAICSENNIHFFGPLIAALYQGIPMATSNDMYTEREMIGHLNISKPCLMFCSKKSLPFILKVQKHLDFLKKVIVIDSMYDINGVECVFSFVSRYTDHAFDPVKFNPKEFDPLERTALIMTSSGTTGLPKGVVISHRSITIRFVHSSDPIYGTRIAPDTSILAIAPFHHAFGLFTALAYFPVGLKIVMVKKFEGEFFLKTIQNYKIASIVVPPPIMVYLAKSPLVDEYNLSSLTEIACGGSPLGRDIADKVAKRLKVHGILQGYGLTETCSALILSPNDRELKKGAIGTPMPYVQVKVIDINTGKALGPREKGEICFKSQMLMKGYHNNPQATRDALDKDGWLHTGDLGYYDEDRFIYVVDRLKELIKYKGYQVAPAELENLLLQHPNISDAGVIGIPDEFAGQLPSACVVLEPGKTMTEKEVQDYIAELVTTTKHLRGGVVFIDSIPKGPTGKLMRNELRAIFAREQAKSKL

- Km: 7 µM
Structure (SMILES): O=C(O)[C@H]1CSC(c2nc3ccc(O)cc3s2)=N1 [LH2, D-luciferin]
